From patent US12138246B2, “Treatments with nirogacestat” (SpringWorks Therapeutics, Inc., priority 2022, dated 2024)
Structures can show the parent of a compound that is named as a salt.

Tests used:
[1] = test system: progressing desmoid tumors; details: Phase 2, participants with progressing desmoid tumors; cited from earlier work
[2] = test system: progressing desmoid tumors/aggressive fibromatosis (DT/AF); format: in vivo
Description: A Phase 3, double-blind, placebo-controlled study is being conducted to determine the efficacy and safety of nirogacestat dihydrobromide in participants with progressing desmoid tumors. A Phase 1 solid tumor study provided preliminary efficacy (Messersmith, W., et al., “A Phase I, dose-finding study in patients with advanced solid malignancies of the oral γ-secretase inhibitor PF-03084014,” Clin. Cancer Res., 21:60-7 (2015)), including long-term durable responses and safety of nirogacestat in desmoid participants (Villalobos, V. M., et al., “Long-Term Follow-Up of Desmoid Fibromatosis Treated with PF-03084014, an Oral Gamma Secretase Inhibitor, Ann. Surg. Oncol., 25:768-75 (2018)). These encouraging results lead to a Phase 2 study in participants with progressing desmoid tumors (Kummar, S., et al., “Clinical Activity of the γ-Secretase Inhibitor PF-03084014 in Adults with Desmoid Tumors (Aggressive Fibromatosis), J. Clin. Oncol., 35:1561-69 (2017)). […] Importantly, participants in the responder group had failed previous systemic therapies (imatinib or sorafenib) indicating a need for alterative therapeutic options for this patient population.
Overall Design: The Phase 3 study will be a multi-center, randomized, double-blind, placebo-controlled, event-driven to compare the efficacy, safety, and tolerability of nirogacestat and placebo in adult participants with progressing DT/AF. This study will consist of 2 phases, a double-blind and an optional open-label extension (OLE) phase.
Following disease progression (confirmed by central review using RECIST v1.1), or completion of the double-blind phase (once the required number of events have been observed and the primary PFS analysis has been completed), participants' treatment assignment will be unblinded, and if eligible, participants will have the option to enroll in the optional OLE phase.
• 1. Participant has DT/AF that has progressed by ≥20% as measured by RECIST v1.1 within the 12-month period prior to first dose of study treatment. • 2. Participant has: • a. Newly diagnosed, measurable progressing DT/AF that is not amenable to surgical resection or radiation therapy; • OR • b. Recurrent, progressing DT/AF following CR to initial therapy; • OR • c. Preexisting DT/AF and has previously received therapy and the residual tumor has progressed. • 3. Participant agrees to provide archival or new tumor tissue for confirmation of disease. • 4. If participant was previously treated with an investigational therapy for treatment of DT/AF, participant must have completed prior therapy at least 28 days prior to signing informed consent. All toxicities from prior therapy must resolve to ≤Grade 1 or baseline. • 5. Participants who are receiving nonsteroidal anti-inflammatory drugs (NSAIDs) as treatment for conditions other than DT/AF must be receiving them prior to the observed progression (inclusion criteria 1) for: • a. Chronic scheduled daily use (defined as stable for 28 days prior to signing informed consent); or • b. Occasional use (defined as ≤3 days per week) for the treatment of pain or as an anti-inflammatory in licensed conditions such as headache, arthritis, etc. • c. Participant has an Eastern Cooperative Oncology Group (ECOG) performance status ≤2 at screening. • 6. Participant has adequate organ and bone marrow function as defined by the following Screening laboratory values: • a. Absolute neutrophil count ≥1500/μL; • b. Platelets ≥100×10^3/μL; • c. Hemoglobin ≥9 g/dL; • d. Total bilirubin ≤1.5× upper limit of normal (ULN) (isolated bilirubin >1.5×ULN is acceptable if bilirubin is fractionated and direct bilirubin <35%); • e. Aspartate aminotransferase (AST) (serum glutamic oxaloacetic transaminase)/alanine aminotransferase (ALT) (serum glutamic pyruvate transaminase)≤2×ULN; and • f. […] Participant can swallow tablets and has no gastrointestinal conditions affecting absorption. […]

[3] = Pharmacokinetic parameters for single oral doses; format: in vivo, human
[4] = intent-to-treat population, n = 70
[5] = Min, COHORT 1: 150 mg (3 × 50 mg), Period 1

Compound | progression while on therapy [1] | most frequent adverse reactions requiring a dose reduction or interruption ([2]; in vivo) | Best overall response, n (%): Complete response [2, 4] | Best overall response, n (%): Not evaluable [2, 4] | Best overall response, n (%): Partial response [2, 4] | Best overall response, n (%): Progressive disease [2, 4] | Best overall response, n (%): Stable disease [2, 4] | Disease control rate, n (%) [2, 4] | Time to response, months, median (range) [2, 4] | progression-free survival (PFS), hazard ratio (HR) ([2]; nirogacestat over placebo, 150 mg twice daily, p<0.001) | CL/F ([3]; Max, COHORT 1: 150 mg (1 × 150 mg), Period 2) | Half-life ([3]; Max, COHORT 1: 150 mg (3 × 50 mg), Period 1) | CL/F ([3]; Max, COHORT 3: 50 mg, Period 1) | CL/F ([3]; Median, COHORT 1: 150 mg (3 × 50 mg), Period 1) | AUCinf [3, 5] | AUClast [3, 5]
CCC[C@H](N[C@H]1CCc2cc(F)cc(F)c2C1)C(=O)Nc1cn(C(C)(C)CNCC(C)(C)C)cn1 (single isomer, unassigned) [nirogacestat] | no participants progressing while on therapy | diarrhea, rash maculo-papular, hypophosphatemia, stomatitis, folliculitis, and fatigue | 5 (7) n (%) | 4 (6) n (%) | 24 (34) n (%) | 1 (1) n (%) | 35 (50) n (%) | 64 (91) n (%) | 5.6 (2.6, 19.4) months | 0.29 | – | – | – | – | – | –
CCC[C@H](N[C@H]1CCc2cc(F)cc(F)c2C1)C(=O)Nc1cn(C(C)(C)CNCC(C)(C)C)cn1 [nirogacestat dihydrobromide] | – | – | – | – | – | – | – | – | – | – | 82.0 L/h | 32.0 h | 660 L/h | 57.0 L/h | 2160 ng·h/mL | 2080 ng·h/mL
